Values after ≈ are worked out from the molar mass of the structure shown.
What was measured:
[1] = test system: Mycobacterium tuberculosis; experiment: Antimicrobial activity against rifamycin-resistant Mycobacterium tuberculosis by resazurin microtiter assay; assay type: functional
[2] = test system: Mycobacterium tuberculosis; experiment: Antimicrobial activity against multidrug-resistant Mycobacterium tuberculosis by resazurin microtiter assay; assay type: functional

## C[C@]1(COc2ccc(N3CCC(Oc4ccc(OC(F)(F)F)cc4)CC3)cc2)Cn2cc([N+](=O)[O-])nc2O1
[1]
  MIC: 0.005 µg/mL (≈ 0.00935 µM)
[2]
  MIC: 0.02 µg/mL (≈ 0.0374 µM)

## CCOc1ccc(NC(=O)Nc2ccc(OC[C@@]3(C)Cn4cc([N+](=O)[O-])nc4O3)cc2)cc1
[1]
  MIC: 1 µg/mL (≈ 2.21 µM)
[2]
  MIC: > 8 µg/mL

## C[C@]1(COc2ccc(NC(=O)Nc3ccc(Cl)cc3)cc2)Cn2cc([N+](=O)[O-])nc2O1
[1]
  MIC: 0.67 µg/mL (≈ 1.51 µM)
[2]
  MIC: > 8 µg/mL

## COc1ccc(NC(=S)Nc2ccc(OC[C@@]3(C)Cn4cc([N+](=O)[O-])nc4O3)cc2)cc1
[1]
  MIC: 2 µg/mL (≈ 4.39 µM)
[2]
  MIC: > 8 µg/mL

## C[C@]1(COc2ccc(S(=O)(=O)N3CCOCC3)cc2)Cn2cc([N+](=O)[O-])nc2O1
[1]
  MIC: 1 µg/mL (≈ 2.36 µM)
[2]
  MIC: 2 µg/mL (≈ 4.71 µM)

## C[C@]1(COc2ccc(N3CCN(S(=O)(=O)c4ccc(F)cc4)CC3)cc2)Cn2cc([N+](=O)[O-])nc2O1
[1]
  MIC: 1 µg/mL (≈ 1.93 µM)
[2]
  MIC: > 8 µg/mL

## C[C@]1(COc2ccc(-n3cc(COc4ccc(OC(F)(F)F)cc4)nn3)cc2)Cn2cc([N+](=O)[O-])nc2O1
[1]
  MIC: 0.06 µg/mL (≈ 0.113 µM)
[2]
  MIC: 0.12 µg/mL (≈ 0.225 µM)

## C[C@]1(COc2ccc(S(=O)(=O)N3CCCCC3)cc2)Cn2cc([N+](=O)[O-])nc2O1
[1]
  MIC: 3.34 µg/mL (≈ 7.91 µM)
[2]
  MIC: > 8 µg/mL

## COc1c(N2CCNC(C)C2)c(F)cc2c(=O)c(C(=O)O)cn(C3CC3)c12 (centres undefined) [GATIFLOXACIN]
[2]
  MIC: 0.5 µg/mL (≈ 1.33 µM)

## CO[C@H]1/C=C/O[C@@]2(C)Oc3c(C)c(O)c4c(O)c(c(/C=N/N5CCN(C)CC5)c(O)c4c3C2=O)NC(=O)/C(C)=C\C=C\[C@H](C)[C@H](O)[C@@H](C)[C@@H](O)[C@@H](C)[C@H](OC(C)=O)[C@@H]1C [RIFAMPIN]
[1]
  MIC: 256 µg/mL (≈ 311 µM)
[2]
  MIC: 128 µg/mL (≈ 156 µM)

— ChEMBL document CHEMBL3739292, “Synthesis and Biological Evaluation of Polar Functionalities Containing Nitrodihydroimidazooxazoles as Anti-TB Agents” (ACS Med Chem Lett, 2015)
